Values joined by “and” are separate entries in the source; they are usually repeats but may differ in a detail not shown here. Equal entries are not always repeated.
Experiments:
DPPH assay = format: biochemical; conditions: at 100 μM; 1 mL 0.2 mM DPPH, 30 minutes
Description: L-Ascorbic acid (Sigma Aldrich) was used as a positive control. […] MRS broth not treated with a strain was used as a negative control. After the reaction, OD515 was measured using a spectrophotometer and DPPH radical scavenging activity was calculated according to the following equation. DPPH radical scavenging activity (%)=[(Absorbance of control to which sample was not added)−(Absorbance of group to which sample was added)]/(Absorbance of control to which sample was not added) […] The experiment was conducted 3 times and the average value was obtained.

B16 melanoma cells = experiment: B16 melanoma cell melanin assay (melanogenesis inhibiting ability); format: cell-based; conditions: 100 ppm sample, 200 nM a-MSH; for extracellular OD475 / extracellular melanin / extracellular melanin, % of control / melanin/protein: replicates 1-3
Description: Skin-whitening effect was evaluated as described below. B16 melanoma cells were seeded onto a 12-well plate at a density of 1.5×10^5 cells per well. DMEM (Dulbeco's modified Eagle's medium) supplemented with 10% fetal bovine serum was used and the cells were cultured for 24 hours (10% CO2, 37° C.). The 12-well plate onto which the B16 melanoma cells were seeded was treated with 200 nM melanocyte-stimulating hormone (MSH) and then the 12-well plate was treated with each sample (25, 50, 100 and 200 ppm). The test groups were: a group treated with sonicated identified strain (LBS sonication), a group treated with heat-killed identified strain (LBS heat), and a group treated with cultural filtrate of the identified strain (culture). […] The cells treated with nothing were used as a negative control group and those treated only with MSH was used as a vehicle group. After the treatment, the cell culture (extracellular melanin) was transferred to a 96-well plate and absorbance was measured at 475 nm. […] The calculated melanin content was normalized to the total protein content for each group and the melanogenesis inhibiting ability was evaluated by comparing with the control groups. The experiment was repeated 3 times.

Structure (SMILES) | DPPH radical scavenging activity (DPPH assay) | extracellular melanin, % of control (average of 3) (B16 melanoma cells) | extracellular OD475 (B16 melanoma cells) | extracellular melanin (B16 melanoma cells) | extracellular melanin, % of control (B16 melanoma cells) | melanin/protein (B16 melanoma cells)
O=C1O[C@H]([C@@H](O)CO)C(O)=C1O [L-ascorbic acid] | about 7% |  |  |  |  | 
O=c1cc(CO)occ1O [kojic acid] |  | 67.3 % of control | 0.163 | 68.00 ppm and 70.00 ppm and 79.50 ppm | 65.1 % of control and 65.3 % of control and 71.5 % of control | 119.4 µg/mg and 119.7 µg/mg and 131.2 µg/mg
OC[C@H]1O[C@@H](Oc2ccc(O)cc2)[C@H](O)[C@@H](O)[C@@H]1O [arbutin] |  | 111.1 % of control | 0.281 and 0.252 and 0.274 | 138.50 ppm and 124.00 ppm and 135.00 ppm | 116.8 % of control and 106.1 % of control and 110.5 % of control | 214.2 µg/mg and 194.5 µg/mg and 202.6 µg/mg

Reference: patent US10251919B2, “Method for improving skin condition or anti-microorganisms or anti-oxidation using Lactobacillus sakei MD honeysuckle” (AMOREPACIFIC CORPORATION, priority 2015, dated 2019)
